Legend:
FSDNA [1] = assay: Isothermal titration calorimetry of DNA binding, two types of independent binding sites; set-up: species or system fish; settings: 25 mM MOPS, 5 mM NaCl, pH 7.0, 25 °C; for K A1 / n A1: high-affinity site; for K B1 / n B1: low-affinity site
Protocol: Cooperative self‐aggregation of DNA binders in combination with DNA binding makes data analysis complex because of the presence of coupled equilibria.^[ [46] ^] In the case of aggregation of charged species, the aggregation process tends to be very sensitive to salt concentration. We therefore studied self‐aggregation in buffer at a lower salt concentration (25 mM MOPS, pH 7.0, 5 mM NaCl) and found no indications of self‐aggregation. We therefore opted to carry out the ITC experiments in a buffer with a reduced salt concentration of 5 mM. Titrations were carried out in two parts, viz. a first titration focussing on the first binding event followed by a second titration focussing on the second binding event (Figures S23–25 with complex and DNA concentrations for each individual titration in Table S5). Figures S23 and S25 clearly show two binding events, as anticipated from UV‐visible titrations.
We analyzed the data using a model involving two types of independent binding sites, correcting for dilution heat effects in our custom data analysis software I2CITC^[ [45], [47] ^] […] The complexes also bind to a second lower affinity type of binding site with a size of approximately 2–3 basepairs with an affinity K B1 of the order of 10^5 M^−1 in an exothermic process. Based on the combination of binding site size and the exothermic interaction, we attribute the low‐affinity binding event to non‐specific binding of the cationic complexes to negatively charged DNA, supported by hydrophobic interactions between complexes. The binding site size of the higher affinity binding site exceeds the dimensions of the complexes of around five base pairs, as estimated from the docking studies (vide supra). […] Intriguingly, the relatively low ΔH A1 is in line with groove binding.^[ [48] ^]
Buffers employed in the experiments were 50 mM NaCl and 25 mM MOPS (adjusted to pH 7 with NaOH) and 5 mM NaCl and 25 mM MOPS (adjusted to pH 7 with NaOH). Solutions of DNA were prepared by diluting the DNA stock solutions (see UV‐visible titrations) as required. Complex solutions were prepared by dissolving 5 mg of the complex in 5 mL of buffer, then filtered through a 0.22 µm PES filter to ensure uniform solutions for ITC titration. Concentrations of solutions of complexes and of DNA were determined using UV‐visible spectroscopy. Calorimetric titrations were carried out at 25 °C on a MicroCal PEAQ‐ITC microcalorimeter (Malvern Instruments Ltd., Worcestershire, UK). The instrument was operated by applying a reference power of 10 μcal/s in high‐feedback mode, stirring the sample cell contents at 750 rpm, with a pre‐injection initial delay of 60 s. Solutions of complexes were loaded into the calorimeter injection syringe and DNA solutions were loaded into the sample cell. All experiments involved an initial injection of 0.4 µL in 0.8 s followed by 18 further injections of 2.0 µL in 4.0 s per injection into the calorimeter sample cell. Injections were spaced by at least 90 s to allow full recovery of the baseline. Raw data were treated using MicroCal PEAQ‐ITC Analysis Software (1.41) to generate both integrated heat effects per injection (ΔQ) and molar heat effects per injection (ΔH). Further data analysis was carried out using I2CITC.^[ [45], [47] ^]

FSDNA [2] = assay: Steady-state and time-resolved luminescence in absence and presence of FSDNA; set-up: species or system fish; settings: for luminescence intensity enhancement following the addition of DNA: λex = 410 nm, 25 mM MOPS, pH 7.0, 50 mM NaCl, uncorrected for dilution; for increase (lifetime) on DNA binding: time-resolved luminescence, with vs without FSDNA
Protocol: Finally, the influence of DNA binding on the luminescence properties of the complexes was investigated. Steady‐state fluorescence spectra (using λ ex = 410 nm) were recorded both in the absence and presence of FSDNA, using a buffer of 25 mM MOPS, pH 7.0, and 50 mM NaCl. First, the appearance and shape of the emission bands (Figure S26) were not influenced by binding to DNA; the position of the emission maxima and the peak shape were generally retained upon the addition of DNA. […] The time‐resolved luminescence measurements support the inhibition of excited state quenching processes leading to the observed increase in integrated intensity.
All reactions were performed with the use of a vacuum line and Schlenk techniques. Reagents were commercial grade and were used without further purification. ^1H, ^19F, and ^13C NMR spectra were recorded on a Bruker Avance dpx 500 MHz spectrometer and were recorded on d^6‐DMSO solutions. ^1H, ^13C{^1H} NMR chemical shifts (δ) were determined relative to internal tetramethylsilane, Si(CH3)4 and are given in ppm. Mass spectra were obtained by the staff at Cardiff University using a Waters Xevo G2‐XS QTof spectrometer. All photophysical data was obtained on a JobinYvon‐Horiba Fluorolog‐3 spectrometer fitted with a JY TBX picosecond photodetection module. The pulsed source was a Nano‐LED configured for 295 nm output operating at 1 MHz. Luminescence lifetime profiles were obtained using the JobinYvon–Horiba FluoroHub single photon counting module and the data fits yielded the lifetime values using DAS6 deconvolution software. IR spectra were recorded on an ATR‐equipped Shimadzu IRAffinity‐1 spectrophotometer. UV‐vis data were recorded as solutions on a Perkin Elmer Lamda20 spectrophotometer. The pH values of aqueous solutions were determined using a Hanna Instruments pH211 microprocessor pH meter with a Bioblock Scientific pH electrode.

fish sperm DNA (FSDNA) = assay: UV-visible titrations with fish sperm DNA, multiple independent binding sites (MIS) model; settings: 25 mM MOPS, 50 mM NaCl, pH 7.0, 25 °C; for K (apparent DNA-binding affinity): association constant
Protocol: We then studied the interactions of the complexes with double‐stranded DNA using UV‐visible titrations. Briefly, solutions of 44.14, 31.52, 35.17, 37.55, and 29.62 µM for the five complexes [Ir(L1‐5)2(en)]Cl, respectively, were titrated (in duplicate) with fish sperm DNA (FSDNA) at 25 °C (Figure 7 and Figures S19–22). The interactions between these complexes and DNA turned out not to involve a single type of binding site (vide infra). Nevertheless, the data from the UV‐visible titrations were provisionally analyzed globally using the multiple independent binding sites (MIS) model to determine apparent binding affinities and apparent binding site sizes (Table 4).
All solutions were prepared by dissolving solids in a buffer with stirring, then filtration through a 0.22 µm PES filter to remove solid particles and ensure uniform, saturated solutions before titration. Concentrations were determined using extinction coefficients. MOPS buffer was prepared by dissolving MOPS (3‐(N‐morpholino)propanesulfonic acid, NaCl (all obtained from Fisher and used as supplied) in deionized water (Elga Purelab Flex), adjusting the pH to 7.0 using a NaOH solution (pH of the buffer was determined using a Hanna Instruments pH211 microprocessor pH meter with a Bioblock Scientific pH probe) and making up the solution to 0.5 liter. A stock solution of fish sperm DNA was prepared by dissolving approximately 0.1 g of fish sperm DNA in 10 mL of the buffer. The resulting solution was dialyzed (3.5 kDa MWCO, Visking, Medicell International Ltd) against 0.5 liters of buffer. Following dialysis, the DNA concentration was determined using UV‐visible spectroscopy using a molar absorption coefficient ε260 nm = 12 800 M^−1 cm^−1.^[ [37] ^] Spectra and titrations were plotted in OriginLab Origin 2019b. The titration data were analyzed globally for each complex using an in‐house written version of the multiple independent binding sites model which also explicitly takes changing ligand concentrations into account.^[ [49] ^]

[3] = Solubility limits in buffer from saturated solutions; format: physicochemical
Protocol: We next estimated the solubility limits of the complexes in buffer (25 mM MOPS, pH 7.0, 50 mM NaCl) from saturated solutions, using the molar absorption coefficients in Table S4 (see also Figures S14–18). […] These values mirror the trend predicted (via logP^[ [39] ^]) for the relative hydrophobicities of the cyclometalating ligands, which is ultimately controlled by the ligand substituent (H vs Me vs OMe vs Cl vs OCF3).

[4] = ITC dilution experiments (self-aggregation); format: physicochemical
From the text: To explore whether multiple binding modes are indeed present for these complexes interacting with DNA, we turned to isothermal titration calorimetry (ITC). ITC typically involves titrating a relatively concentrated solution of the binder into a more dilute solution of DNA (instead of titrating a relatively concentrated DNA solution into a more dilute solution of the binder). Therefore, the possible self‐aggregation of the DNA binders was explored through dilution experiments in which solutions of a complex at representative concentrations in buffer (25 mM MOPS, pH 7.0, 50 mM NaCl) were diluted into matched buffer in the calorimeter cell.
Further experiments at different complex concentrations confirm this sigmoidal behavior of the dilution heat effects around a critical concentration. […] Nevertheless, self‐assembled nanoparticles of organic fluorophores with micromolar CACs have been reported.^[ [43] ^]
CACs are typical for cooperative aggregation processes, such as micellization, and we therefore interpret the data as [Ir(L1)2(en)]Cl cooperatively self‐aggregating in these buffer conditions (25 mM MOPS, pH 7.0, 50 mM NaCl). While it is known that the determination of aggregation numbers from titration calorimetry data is challenging, other thermodynamic parameters are readily available. […] The molar enthalpy for self‐aggregation of −92 kJ mol^−1 (difference between average pre‐ and post‐CAC heat effects) indicates a highly exothermic self‐aggregation process accompanied by a T×Δ°S aggregation of […]. […]
Buffers employed in the experiments were 50 mM NaCl and 25 mM MOPS (adjusted to pH 7 with NaOH) and 5 mM NaCl and 25 mM MOPS (adjusted to pH 7 with NaOH). […] Concentrations of solutions of complexes and of DNA were determined using UV‐visible spectroscopy. […]

[5] = buffer 25 mM MOPS, pH 7.0, 50 mM NaCl, saturated solutions, estimated via molar absorption coefficients

| SMILES | K A1 (FSDNA [1]) | n A1 (FSDNA [1]) [bp^−1] | K B1 (FSDNA [1]) | n B1 (FSDNA [1]) | luminescence intensity enhancement following the addition of DNA (FSDNA [2]) | binding site size (apparent) (fish sperm DNA (FSDNA)) [base pairs] | K (apparent DNA-binding affinity) (fish sperm DNA (FSDNA)) | Solubility limit [3, 5] [µM] | critical aggregation concentration (CAC) ([4]; 25 mM MOPS, pH 7.0, 50 mM NaCl, 25 °C) [µM] | molar enthalpy for self‐aggregation ([4]; difference between average pre‐ and post‐CAC heat effects) [kcal/mol] | equilibrium constant for aggregation ([4]; from CAC, 25 mM MOPS, pH 7.0, 50 mM NaCl) [M⁻¹] | Solubility limit ([3]; pH 7) [µM] | increase (lifetime) on DNA binding (FSDNA [2]) [%] |
| --- | --- | --- | --- | --- | --- | --- | --- | --- | --- | --- | --- | --- | --- |
| COc1c[c-]c(-c2nc3ccccc3s2)cc1.COc1c[c-]c(-c2nc3ccccc3s2)cc1.NCCN.[Cl-].[Ir+3] [[Ir(L3)2(en)]Cl] | 19 10^6 M^−1 | 0.07 | 0.13 10^6 M^−1 | 0.31 | 40–65% | 0.76 ± 0.04 | 4.6 ± 2.3 10^5 M^−1 | 739 | – | – | – | – | – |
| NCCN.[Cl-].[Ir+3].[c-]1ccccc1-c1nc2ccccc2s1.[c-]1ccccc1-c1nc2ccccc2s1 [[Ir(L1)2(en)]Cl] | 239 10^6 M^−1 | 0.06 | 0.14 10^6 M^−1 | 0.46 | – | 0.70 ± 0.15 | 4.3 ± 5.3 10^5 M^−1 | – | 2.1 | -22 | 480000 | 978 | – |
| Clc1c[c-]c(-c2nc3ccccc3s2)cc1.Clc1c[c-]c(-c2nc3ccccc3s2)cc1.NCCN.[Cl-].[Ir+3] [[Ir(L4)2(en)]Cl] | – | – | – | – | – | 0.43 ± 0.19 | 0.8 ± 0.7 10^5 M^−1 | 100 | – | – | – | – | 75 |
| Cc1c[c-]c(-c2nc3ccccc3s2)cc1.Cc1c[c-]c(-c2nc3ccccc3s2)cc1.NCCN.[Cl-].[Ir+3] [[Ir(L2)2(en)]Cl] | 132 10^6 M^−1 | 0.03 | 0.41 10^6 M^−1 | 0.57 | – | 0.64 ± 0.05 | 4.2 ± 3.7 10^5 M^−1 | 327 | – | – | – | – | – |
| FC(F)(F)Oc1c[c-]c(-c2nc3ccccc3s2)cc1.FC(F)(F)Oc1c[c-]c(-c2nc3ccccc3s2)cc1.NCCN.[Cl-].[Ir+3] [[Ir(L5)2(en)]Cl] | – | – | – | – | 40–65% | 0.92 ± 0.18 | 0.6 ± 0.3 10^5 M^−1 | 75 | – | – | – | – | 98 |
